Structures are written as SMILES.

A word on the IC50: it is the concentration that inhibits the measured activity by half.

In series [1] the test system is HepG2 cells. Description: HepG2 cell toxicity assay. In kind it is cell-based. To be noted: Homo sapiens, HepG2, read-out: HepG2 IC50, MTT cytotoxicity, Tables 5 and 6.
Series [2] concerns endocytosis of transferrin in T. brucei. The conditions noted are these: cited from earlier work.
In series [3] the test system is T. brucei. To be noted: cited from earlier work.
For series [4], the system named is T. brucei brucei CA427. Description: Mouse model of HAT.
Series [5] has as its system endocytosis of transferrin in T. brucei. Description: Receptor-mediated endocytosis of transferrin in the trypanosome.
Series [6] can be described thus: Mouse oral pharmacokinetic study. In kind it is in vivo.
Series [7] has as its system T. brucei. Description: Trypanosome cell cycle analysis.

Consider `O=S(=O)(c1cccc(-c2ccc3ncnc(Nc4ccc(OCc5cccc(F)c5)c(Cl)c4)c3c2)c1)N1CCCCC1` [Compound 10m, N-(3-chloro-4-((3-fluorobenzyl)oxy)phenyl)-6-(3-(piperidin-1-ylsulfonyl)phenyl)quinazolin-4-amine], for which the half-maximal inhibitory concentration (IC50) in series [1] is over 20 µM.

`CS(=O)(=O)CCNCc1ccc(-c2ccc3ncnc(Nc4ccc(OCc5cccc(F)c5)c(Cl)c4)c3c2)o1` [Compound 1, lapatinib]: the “effect on endocytosis of transferrin in the trypanosome” value in series [2] is “inhibited endocytosis of transferrin”.

As for `C=CC(=O)Nc1cc2c(Nc3ccc(F)c(Cl)c3)ncnc2cc1OCCCN1CCOCC1` [canertinib], the “EC50 for killing T. brucei” value in series [3] is “low micromolar range”.

For `O=S(=O)(c1ccc(-c2ccc3ncnc(Nc4ccc(OCc5cccc(F)c5)c(Cl)c4)c3c2)cc1)N1CCCCC1` [Compound 10l, N-(3-chloro-4-((3-fluorobenzyl)oxy)phenyl)-6-(4-(piperidin-1-ylsulfonyl)phenyl)quinazolin-4-amine], the IC50 in series [1] is over 20 µM.

For `O=S(=O)(c1cccc(-c2ccc3ncnc(Nc4ccc(OCc5cccc(F)c5)c(Cl)c4)c3c2)c1)N1CCOCC1` [Compound 10k, N-(3-chloro-4-((3-fluorobenzyl)oxy)phenyl)-6-(3-(morpholinosulfonyl)phenyl)quinazolin-4-amine], the IC50 in series [1] is over 20 µM.

With `Fc1cccc(COc2ccc(Nc3ncnc4ccc(-c5cccc(N6CCOCC6)c5)cc34)cc2Cl)c1` [Compound 23a, N-(3-chloro-4-((3-fluorobenzyl)oxy)phenyl)-6-(3-morpholinophenyl)quinazolin-4-amine], in series [4] (10 mg/kg twice per day i.p.), the “survival on day 8 (all untreated mice had died)” value is “all alive”. The survival result in series [4] (10 mg/kg twice per day oral) is “died in the same time frame as control mice”. The “toxicity in multi-day regimen” value in series [4] (mouse, 40 mg/kg dose once per day) was “drug-related toxicity was observed”. The “effect on receptor-mediated endocytosis of transferrin” value in series [5] is “no effect”. For the same compound, in series [6], the oral bioavailability result is given as “orally bioavailable”. For the same compound, the “effect on the cell cycle” value in series [7] was “blocks duplication of the kinetoplast and arrests cytokinesis, without inhibiting division of the trypanosome nucleus”. For the same compound, in series [7] (DAPI microscopy), the “fraction of cells containing two nuclei and one kinetoplast (1K2N)” value was “selectively increased”; the “number of cells containing one nucleus (1K1N, 1Ke1N)” value is listed as “reduced”.

The values above are taken from article PMC3663906 (Journal of medicinal chemistry, 2013).
